Experimental data: the NIST ThermoML archive (doi:10.1016/j.jct.2015.09.030)
± gives the expanded uncertainty stated by the source.

Key:
[1] = Liquid; for viscosity: Falling or rolling sphere viscometry; for mass density: Vibrating tube method
[2] = xn = mol fraction of the nth substance listed; conditions: 100 kPa, Liquid, x2 = 0; for mass density: Vibrating tube method; for viscosity: Falling or rolling sphere viscometry

CO [methanol]
[1], 100 kPa
Conditions	mass density [kg/m3]	viscosity [mPa·s]
290.15 K	797.3 ± 6	0.6069 ± 0.061
293.15 K	793.5 ± 6	0.5853 ± 0.059
295.15 K	790.8 ± 6	0.5571 ± 0.056
298.15 K	786.8 ± 6	0.5446 ± 0.055
303.15 K	781.4 ± 6	0.5122 ± 0.051
308.15 K	777.3 ± 6	0.4794 ± 0.048
313.15 K	772.1 ± 6	0.4508 ± 0.045
318.15 K	767.7 ± 6	0.4317 ± 0.043
323.15 K	762.1 ± 6	0.4051 ± 0.041

CO [methanol] + CCCCCCCCCCCCCC[P+](CCCCCC)(CCCCCC)CCCCCC.[Cl-]
[2]
Conditions	mass density [kg/m3]	viscosity [mPa·s]
290.15 K	797.3 ± 6	–
293.15 K	793.5 ± 6	–
295.15 K	790.8 ± 6	0.557 ± 0.056
298.15 K	786.8 ± 6	0.544 ± 0.055
303.15 K	781.4 ± 6	0.512 ± 0.051
308.15 K	777.3 ± 6	0.479 ± 0.048
313.15 K	772.1 ± 6	0.451 ± 0.045

CCCCCCCCCCCCCC[P+](CCCCCC)(CCCCCC)CCCCCC.[Cl-] [trihexyl(tetradecyl)phosphonium chloride]
[1], 101.33 kPa
Conditions	mass density [kg/m3]	viscosity [mPa·s]
290.15 K	897.5 ± 6.2	–
293.15 K	895.8 ± 6.2	1996 ± 300
295.15 K	894.6 ± 6.2	1996 ± 300
298.15 K	892.8 ± 6.2	1683 ± 250
303.15 K	889.8 ± 6.2	1174 ± 160
308.15 K	886.9 ± 6.2	824.1 ± 110
313.15 K	883.9 ± 6.2	593.7 ± 75
318.15 K	880.8 ± 6.2	399.9 ± 48
323.15 K	878 ± 6.2	325.9 ± 38
